Results on one compound are retold here after patent US20240287123A1 (Victoria Link Limited, priority 2021, published 2024).

Series [1] is described as follows: Cytotoxicity in Akata cells (CTG), concurrent with EBV assay. In kind it is cell-based. The following applies: human, Akata cells (without virus induction), Table 1. As to the method: Each experiment that evaluates the antiviral activity of compounds includes both positive and negative control compounds to ensure the performance of each assay. Concurrent assessment of cytotoxicity was also performed for each study in the same cell line and with the same compound exposure.
Assays for EBV were performed by reported methods.^37 Akata cells were induced to undergo a lytic infection with 50 μg/ml of a goat anti-human IgG antibody. Experimental compounds were diluted within plates. The cells were added and incubated for 72 h. Similar plates were initiated without virus induction/addition and used for measuring cytotoxicity by the addition of CTG. For all assays, the replication of the virus was assessed by the quantification of viral DNA. […] Compound concentrations sufficient to reduce genome copy number by 50% were calculated from experimental data as well as compound cytotoxicity.

In the next series the test system is HIVADA. The experiment in a line: HIV p24 alphaLISA in infected monocyte derived macrophages. In kind it is cell-based, Human Immunodeficiency Virus. As to the method:
Primary human MDMs were cultured from peripheral blood mononuclear cells and pre-treated for 24 h with ddhC (100 μM), compound 8 (100 μM), compound 21 (100 μM), emtricitabine control (15 μM, 10 μM, 1 μM, 0.1 μM), or the drug vehicle, DMSO. MDM were then infected with HIVADA in the presence of these compounds and treated daily (with compound), while culture supernatants were collected to quantify levels of HIV p24, a viral capsid protein, on days 2-7 of infection.
Leukopaks from healthy donors were obtained from the New York Blood Center and processed by Ficoll gradient centrifugation to isolate peripheral blood mononuclear cells (PBMC). These PBMC were cultured adherently into monocyte derived macrophages (MDM), according to published protocols, on 60 mm dishes for 6 days with 10-20 ng/ml macrophage colony stimulating factor (M-CSF). MDM were pre-treated with ddhC, compound 8, compound 21, emtricitabine (Cat. No .: 10071), or DMSO vehicle at indicated concentrations for 24 hours (NIH AIDS Reagent Program, Bethesda, MD). Cells were left uninfected or infected for 24 h in the presence of one of the compounds listed above with 20 ng/mL HIVADA, a macrophage-tropic HIV strain originally derived from a person with HIV (NIH). Media was changed daily with the mentioned compounds added each time, and supernatants were collected on days 2, 3, 4, 5, 6, and 7 of infection. Each treatment condition was analyzed in duplicate plates per experiment.
Supernatant samples were analyzed for the viral capsid protein, HIV p24, by a sensitive p24 alphaLISA according to the manufacturer's protocol (Perkin-Elmer, Waltham, MA). Treatment conditions were analyzed in duplicate plates, and each supernatant was analyzed in duplicate on a 96-well alphaLISA plate. These were then fit to a sigmoid standard curve to extrapolate HIV p24 levels in pg/mL within the assay limits of detection.
On the technique in general: Alpha assays give light when donor and acceptor beads are brought close together.

SMILES strings stand for the structures. Entries after “also recorded” stand apart in the source; their conditions may differ.

One may read the CC50 as the concentration at which the toxic effect on the cells reaches its halfway point. High values mean lower toxicity to the cells, low ones greater toxicity to the cells. `CC(C)C(=O)OCC1=C[C@@H](O)[C@H](n2ccc(N)nc2=O)O1` [Compound 8, 3′-Deoxy-3′,4′-didehydro-5′-O-isobutyroyl-cytidine] had a CC50 at 72 h in series [1] of over 50 µM. The “reduction of p24 levels” value in the series on HIVADA (10 μM, by day 6 of infection) is about 50%. Further, the “levels of HIV p24 viral capsid protein” value in the series on HIVADA (100 μM, infected MDM, days 2-7, compared with DMSO control) is reported as “significantly reduce; also recorded: significantly decreased”. For the same compound, the “impact on HIV replication relative to the DMSO control” value in the series with HIVADA (low doses: compound 8 compound 21 (0.1-1 μM) as printed) was “minimal impact”.
